For assay [1], the system named is FaDu subcutaneous xenograft. The assay can be described thus: Antitumor effects in FaDu subcutaneous xenograft model in combination with cetuximab in mice. The class given is in vivo. As to the method:
A human squamous cell carcinoma of the head and neck (SCCHN) cell line FaDu, which had been cultured in an RPMI-1640 medium containing 10% FBS, and penicillin and streptomycin, was adjusted to a concentration of 5×10^7 cells/mL with Hanks' Balanced Salt Solution to prepare a cell suspension. The cell suspension was inoculated in a volume of 100 μL into a subcutaneous part of a right flank of nude mice, 7 weeks of ages (CAnN.Cg-Foxnlnu/CrlCrlj, female, Charles River Laboratories Japan Inc.).
On the basis of the volumes of tumors obtained on the first day of administration, the mice were grouped such that averages of the tumor volumes were substantially equal among the groups. Each test compound was dissolved in DMSO and a solution was stored at the freezer before use. Immediately before the administration, the stock solution was diluted in saline with 100 μM of hydroxypropyl-β-cyclodextrin. […] Incidentally, the experiment was conducted on groups each consisting of 4 mice.

The subject of assay [2] is α-SMA positive-CAFs in the FaDu subcutaneous model. Description: Effect on α-SMA positive-CAFs in the FaDu subcutaneous model (Test Example 10). The class given is in vivo, mice. To be noted: two days after administration. As to the method: A human squamous cell carcinoma of the head and neck (SCCHN) cell line FaDu, which had been cultured in an RPMI-1640 medium containing 10% FBS, and penicillin and streptomycin, was adjusted to a concentration of 5×10^7 cells/mL with PBS to prepare a cell suspension. The cell suspension was inoculated in a volume of 100 μL into a subcutaneous part of a right flank of nude mice, 5 to 6 weeks of ages (CAnN.Cg-Foxnlnu/CrlCrlj, female, Charles River Laboratories Japan, Inc.). Ten days after cell inoculation, a test compound in saline with 100 μM of hydroxypropyl-β-cyclodextrin was intravenously administered at ½ MTD and MTD. The experiment was conducted on groups each consisting of 3 mice. Two days after administration, tumor samples were collected and fixed with IHC Zinc Fixative (BD Pharmingen) at 4° C. for 24 hr. Paraffin-embedded tissues were sectioned (3 μm), mounted on positively charged slides, and air-dried for 6 hr. Immunohistochemical staining of α-SMA was conducted using Ventana autostainer model Discover XT (Roche Diagnostics). Sections were deparaffinized, conditioned and the antigens were retrieved with proprietary buffers, EZPrep and CC1 (Ventana Medical Systems). Mouse anti-α-SMA monoclonal antibody conjugated with alkaline phosphatase (clone 1A4, Sigma) was applied at 5 μg/mL. Sections were incubated with the antibody for 6 hr. The detection was performed with RedMap kit (Ventana Medical Systems, Inc). Sections were dehydrated in graded ethanols, defatted in xylene replacement and covered with DPX (Merck KGaA). The serial tumor slices were deparaffinized and stained with Mayer's hematoxylin (Muto Pure Chemicals) for 1 min. Sections were dehydrated in graded ethanols, defatted in xylene replacement and covered with DPX (Merck KGaA).
Immunostained slides were scanned using Vectra 2 Automated Slide Imaging System (Perkin Elmer Inc.). The area of the α-SMA-positive region in the whole tumor was quantified by counting the α-SMA-positive objects using inForm 2 software (PerkinElmer Inc.). Area of the tumor region was measured by assessing the hematoxylin-staining area using in Form 2 software (PerkinElmer Inc.). The area of the α-SMA positive region was normalized by the area of the tumor region. A suppression rate of the α-SMA positive area of the test compound-dosing group was calculated with the below formula, and shown in Table 10.

In assay [3] the test system is human urothelial cancer cell line SW780. The assay can be described thus: SW780 growth inhibition assay. Type of assay: cell-based. Particulars: 3 days incubation, CellTiter-Glo. As to the method:
(§1) In this assay, the growth inhibitory activities of test compounds in the human urothelial cancer cell line SW780 were measured. SW780 cells were maintained in RPMI-1640 medium containing 10% FBS, penicillin, and streptomycin in a 5% CO2 incubator (37° C.). To each well of a 96-well plate (Becton, Dickinson and Company, 353219), 100 μL of a SW780 cell suspension adjusted to a concentration of 3×10^4 cells/mL with the culture medium was added, and the cells were incubated overnight in a 5% CO2 incubator (37° C.). On the next day, 100 μL of Compound (1) or Halichondrin B in three-fold dilution series suspended in the culture medium was added to each well, and the resultant was incubated for 3 days in a 5% CO2 incubator (37° C.). Then, cell viability was determined by CellTiter-Glo® Luminescent Cell Viability Assay (Promega) with EnVision 2103 Multilabel Reader (Perkin-Elmer, Wellesley, Mass.). Value of the wells containing cells without adding the test compounds was defined as 100% and the value of the wells containing no cells was defined as 0%. The concentrations of the test compounds necessary for inhibiting the cell growth by 50% (i.e., an IC50 value) were calculated, and are shown in Table 16.

Assay [4] relates to human synovial sarcoma cell line HS-SY-II. The assay can be described thus: HS-SY-II growth inhibition assay. Type of assay: cell-based. Particulars: 3 days incubation, CellTiter-Glo. As for the experimental part: as §1, with “human synovial sarcoma” for “human urothelial cancer”, “line HS-SY-II” for “line SW780”, “measured. […]” for “measured. SW780”, “in a DMEM” for “in RPMI-1640”, “a HS-SY-II” for “a SW780”, “Table 17.” for “Table 16.”

Regarding `C=C1C[C@@H]2CC[C@@]34C[C@H]5O[C@H]6[C@@H](O3)[C@H]3O[C@H](CC[C@@H]3O[C@H]6[C@H]5O4)CC(=O)O[C@@H]3[C@@H](C)[C@@H]4O[C@@H]5C[C@]6(C[C@@H]7O[C@]8(C[C@H](C)[C@@H]9O[C@H]([C@@H](O)C[C@@H](O)CO)C[C@@H]9O8)C[C@H](C)[C@@H]7O6)O[C@@H]5C[C@@H]4O[C@H]3C[C@H]3O[C@@H](CC[C@@H]1O2)C[C@@H](C)C3=C` [Halichondrin B, reference compound], the “Tumor Regression on day 35 (%)” value is −38% in assay [1] (0.0125 mg/kg intravenously + cetuximab 20 mg/kg) and −2% in assay [1] (0.025 mg/kg intravenously + cetuximab 20 mg/kg). Also, the “Suppression rate of α-SMA positive area (%)” value came to 7% in assay [2] (0.025 mg/kg intravenously) and 3% in assay [2] (0.05 mg/kg intravenously). Further, the values for the IC50 in assay [3] and in assay [4] were 0.032 nM and 0.01 nM, respectively.
Regarding `C=C1C[C@@H]2CC[C@@]34C[C@H]5O[C@H]6[C@@H](O3)[C@H]3O[C@H](CC[C@@H]3O[C@H]6C5O4)CC(=O)O[C@@H]3[C@@H](C)[C@@H]4O[C@@H]5C[C@]6(C[C@@H]7O[C@]8(C[C@H](C)[C@@H]9O[C@H](CN)[C@H](O)C[C@@H]9O8)C[C@H](C)[C@@H]7O6)O[C@@H]5C[C@@H]4O[C@H]3C[C@H]3O[C@@H](CC[C@@H]1O2)C[C@@H](C)C3=C` [Compound (1)], the “Tumor Regression on day 35 (%)” value in assay [1] (0.05 mg/kg intravenously + cetuximab 20 mg/kg) stood at 38%; in assay [1] (0.1 mg/kg intravenously + cetuximab 20 mg/kg), 60%. The “Suppression rate of α-SMA positive area (%)” value in assay [2] (0.10 mg/kg intravenously) was found to be 21%; in assay [2] (0.20 mg/kg intravenously), 28%. Further, the IC50 in assay [3] was found to be 0.017 nM; in assay [4] it was 0.002 nM.

These data come from patent US11725015B2, “Macrocyclic compound and uses thereof” (President and Fellows of Harvard College, priority 2017, dated 2023).
